Tests used:
[1] = Cytotoxicity against Huh7 cells relative to control; assay type: cell-based; details: human, huh-7
[2] = tested on: Hepatitis C virus; assay: Antiviral activity against Hepatitis C virus infected Huh7 cells assessed as RNA replicon; assay type: functional, Hepacivirus hominis, Huh-7

Structure (SMILES): COc1ccc(-c2nc3c(=O)nc(N)[nH]c(=O)c3n2[C@@H]2O[C@H](CO)[C@@H](O)[C@H]2O)cc1
- Activity [1]: 109.8%
- Inhibition [2]: 9.5%

Structure (SMILES): COc1cccc(-c2nc3c(=O)nc(N)[nH]c(=O)c3n2[C@@H]2O[C@H](CO)[C@@H](O)[C@H]2O)c1
- Activity [1]: 97.2%
- Inhibition [2]: 31.8%

Structure (SMILES): Nc1nc(=O)c2nc(-c3ccc(F)cc3)n([C@@H]3O[C@H](CO)[C@@H](O)[C@H]3O)c2c(=O)[nH]1
- Activity [1]: 108.6%
- Inhibition [2]: 0%

From ChEMBL document CHEMBL1143699, “Chemical and biological effects of substitution of the 2-position of ring-expanded ('fat') nucleosides containing the imidazo[4,5-e][1,3]diazepine-4,8-dione ring system: the role of electronic and steric factors on glycosidic bond stability and anti-HCV activity” (Bioorg Med Chem, 2007)
